These results are taken from patent EP0044992A1, “Lactams, process for their preparation and pharmaceutical compositions containing them” (Dr. Karl Thomae GmbH, priority 1980, dated 1982).

SMILES strings stand for the structures. In brackets after ≈: the same amount, converted by molar mass.

Assay [1] concerns Klebsiella pneumoniae BC 6. Put plainly: Serial dilution test in microtiter system (bacteriostasis, MIC). In kind it is cell-based. The conditions noted are these: BC6, liquid medium, 18 to 20 h at 37 °C, read-out: Minimale Hemmkonzentration Kl.pneum. BC 6. The protocol: (§1) Für die Untersuchungen wurde die Methode des Reihenverdünnungstestes im Mikrotitersystem angewandt. Die Prüfung der Substanzen auf Bakteriostase erfolgte in flüssigem Medium. Es wurde die Bakteriostasewirkung bei folgenden Konzentrationen untersucht: • 128, 64, 32, 16, 8, 4, 2, 1, 0,5, 0,25, 0,12, 0,06jug/ml. Es wurde ein Nährboden folgender Zusammensetzung benutzt: 10 g Pepton, 8 g Fleischextrakt-Oxoid, 3 g Natriumchlorid, 2 g sek. Natriumphosphat werden mit dest. Wasser auf […] aufgefüllt (pH 7,2 - 7,4). Lediglich bei der Testung gegen Streptokokken wurde 1 % Glucose hinzugefügt. Das Alter der Primärkulturen betrugt etwa 20 Stunden. Die Einstellung der Keimsuspension erfolgte am Photometer (nach "Eppendorf") (Reagenzglas-Durchmesser 14 mm, Filter 546nm) anhand der Trübung einer Bariumsulfat-Vergleichssuspension, die durch eine Bariumsulfat-Aufschwemmung erzeugt wurde, welche durch die Zugabe von 3,0 ml 1%ige Barium-chloridlösung in 97 ml 1%ige Schwefelsäure entstand. Nach der Einstellung wurden Streptococcus Aronson im Verhältnis 1:15 und die übrigen Testkeime im Verhältnis 1:1500 mit einer Kochsalzlösung weiter verdünnt.
(§2) 16 mg der jeweiligen Substanz wurden in 10 ml-Meßkolben eingewogen und mit dem Lösungsmittel bis zur Marke aufgefüllt. Die weitere Verdünnungsreihe wurde mit destilliertem Wasser oder dem jeweiligen Lösungsmittel hergestellt.
(§3) Die Vertiefungen der Mikrotiterplatten wurden mit 0,2 ml Nährmedium, 0,01 ml der entsprechenden Substanzverdünnung und mit einem Tropfen Keimsuspension (0,01 ml) beschickt und 18 bis 20 Stunden bei 37 °C bebrütet. Eine Lösungsmittelkontrolle wurde stets mitgeführt.
(§4) Die Ablesung wurde makroskopisch vorgenommen, wobei die jeweilige Grenzkonzentration (= niedrigste noch bakteriostatisch wirksame Konzentration) ermittelt wurde.
(§5) Als Testorganismen wurden benützt: • Staphylococcus aureus SG 511, Escherichia coli ATCC 11 775, Pseudomonas aeruginosa Hamburgensis und Pseudomonas; aeruginosa walter, Serratia marcescens ATCC 13 880, Klebsiella pneumoniae ATCC 10 031 und BC 6, Proteus mirabilis Hamburgensis, Proteus rettgeri, Enterobacter cloacae ATCC 13 047, E. coli R+TEM (ß-Lactamase-Träger).

For assay [2], the system named is E. coli R+TEM (ß-Lactamase-Träger). Described as above. The following applies: Escherichia coli, read-out: Minimale Hemmkonzentration E.coli R+TEM. Format: cell-based. The protocol: as §1, §2, §3, §4, §5
Assay [3] concerns Proteus rettgeri. Described as above. Format: cell-based. The conditions noted are these: Providencia rettgeri; liquid medium, 18 to 20 h at 37 °C; read-out: Minimale Hemmkonzentration Prot. Rettg. The protocol: as §1, §2, §3, §4, §5
Assay [4] has as its system Staphylococcus aureus SG 511. The assay is described as above. The following applies: SG511, liquid medium, 18 to 20 h at 37 °C, read-out: Minimale Hemmkonzentration Staph. aureus SG 511. Format: cell-based. How it is done: as §1, §2, §3, §4, §5
Assay [5] deals with Klebsiella pneumoniae ATCC 10 031. The description is as above. Format: cell-based. The following applies: liquid medium, 18 to 20 h at 37 °C, read-out: Minimale Hemmkonzentration Kl.pneum. ATCC 10031. How it is done: as §1, §2, §3, §4, §5
Assay [6] relates to Proteus mirabilis Hamburgensis. The description is as above. In kind it is cell-based. The conditions noted are these: liquid medium, 18 to 20 h at 37 °C, read-out: Minimale Hemmkonzentration Prot. mirab. Hbg. How it is done: as §1, §2, §3, §4, §5
Assay [7] deals with Escherichia coli ATCC 11 775. The assay is described as above. In kind it is cell-based. The following applies: liquid medium, 18 to 20 h at 37 °C, read-out: Minimale Hemmkonzentration E.coli ATCC 11775. The protocol: as §1, §2, §3, §4, §5
Assay [8] concerns Pseudomonas aeruginosa Hamburgensis. Described as above. The following applies: liquid medium, 18 to 20 h at 37 °C, read-out: Minimale Hemmkonzentration Pseud. Hbg. Format: cell-based. The protocol: as §1, §2, §3, §4, §5
The subject of assay [9] is Enterobacter cloacae ATCC 13 047. The assay is described as above. Format: cell-based. The conditions noted are these: liquid medium, 18 to 20 h at 37 °C, read-out: Minimale Hemmkonzentration Ent. cloacae ATCC 13047. The protocol: as §1, §2, §3, §4, §5
The subject of assay [10] is Pseudomonas aeruginosa walter. The assay is described as above. Format: cell-based. The conditions noted are these: liquid medium, 18 to 20 h at 37 °C, read-out: Minimale Hemmkonzentration Pseud.W. The protocol:
as §1, §2, §3, §4, §5

In assay [11] the test system is Serratia marcescens ATCC 13 880. Described as above. Format: cell-based. The following applies: liquid medium, 18 to 20 h at 37 °C, read-out: Minimale Hemmkonzentration Serr. marcesc. ATCC 13880. How it is done:
as §1, §2, §3, §4, §5

For assay [12], the system named is E. coli ATCC 11 775. Nature of the assay: In vivo activity, experimental intraperitoneal E. coli infection in mice. On the set-up: species or system Mäuse. The conditions noted are these: Escherichia coli, ATCC11, sc, 168 h; female NMRI mice, i.p. E. coli infection, s.c. application once 1 h after infection, 7 days observation; dose at which 50 % of animals survive. How it is done:
Eine Reihe von erfindungsgemäßen Verbindungen wurde in vivo bei experimentellen Infektionen an Mäusen untersucht. Man verwendete als pathogene Bakterien E. coli ATCC 11 775. Es wurde eine intraperitoneale Infektion mit 0,2 ml einer Bakteriensuspension (mit 5 % Mucin) gesetzt. Dies entspricht etwa 1,4 x 10^6 Keime E. coli/Maus. Weibliche Mäuse vom Stamm NMRI wurden in Gruppen von jeweils 10 Tieren aufgeteilt, zwei Gruppen blieben unbehandelt, die restlichen Gruppen wurden mit verschiedenen Dosen der jeweiligen erfindungsgemäßen Penicilline und Cephalosporine subcutan zur Bestimmung der ED50 (Dosis bei der 50 % der Tiere überleben) behandelt. Es wurde einmal eine Stunde: nach Setzen der Injektion therapiert.
Der Beobachtungszeitraum betrug in beiden Fällen 7 Tage. Die Ergebnisse dieser Teste mit repräsentativen Vertretern der erfindungsgemäßen Penicilline und Cephalosporine sind in der Tabelle 2 dargestellt.

As to `CCOC(=O)Oc1ccc([C@@H](NC(=O)Nc2cnc(Nc3ccc(S(N)(=O)=O)cc3)nc2O)C(=O)N[C@@H]2C(=O)N3[C@@H]2SC(C)(C)[C@@H]3C(=O)O)cc1` [A, D-α-[3-(2-p-Aminosulfonylanilino-4-hydroxy-5-pyrimidinyl)-ureido]-p-äthoxycarbonyloxy-benzylpenicillin-Natrium], the MIC in assay [1] was 2 mg/L (≈ 2.69 µM); in [2], over 64 mg/L; in assay [3], 1 mg/L (≈ 1.34 µM); in assay [4] it was 0.5 mg/L (≈ 0.671 µM); in assay [5], 2 mg/L (≈ 2.69 µM); in [6] it was 0.12 mg/L (≈ 0.161 µM). The MIC stood at 0.25 mg/L (≈ 0.336 µM) in assay [7]; 2 mg/L (≈ 2.69 µM) in assay [8]; 1 mg/L (≈ 1.34 µM) in assay [9]; 2 mg/L (≈ 2.69 µM) in [10]; 0.25 mg/L (≈ 0.336 µM) in assay [11]. For the same molecule, the ED50 (usually the dose at which the effect has come halfway, by size or by number of responders) in [12] was 5.5 mg/kg.

Turning to `CC1(C)S[C@@H]2[C@H](NC(=O)[C@H](NC(=O)N3CCNC3=O)c3ccccc3)C(=O)N2[C@H]1C(=O)O` [Azlocillin, reference compound], the MIC in [1] is 32 mg/L (≈ 69.3 µM); in assay [2], over 64 mg/L; in assay [3], 8 mg/L (≈ 17.3 µM); in assay [4], 2 mg/L (≈ 4.33 µM); in assay [5] it was 32 mg/L (≈ 69.3 µM); in assay [6], 2 mg/L (≈ 4.33 µM). For the same molecule, the MIC is 8 to 16 mg/L (≈ 17.3 to 34.7 µM) in assay [7]; 8 mg/L (≈ 17.3 µM) in [8]; 32 mg/L (≈ 69.3 µM) in assay [9]; 8 mg/L (≈ 17.3 µM) in assay [10]; 4 mg/L (≈ 8.67 µM) in [11]. In addition, the ED50 in assay [12] was over 100 mg/kg.

As for `CC(=O)Oc1ccc([C@@H](NC(=O)Nc2cnc(Nc3ccc(S(N)(=O)=O)cc3)nc2O)C(=O)N[C@@H]2C(=O)N3[C@@H]2SC(C)(C)[C@@H]3C(=O)O)cc1` [B, D-α-[3-(2-p-Aminosulfonylanilino-4-hydroxy-5-pyrimidinyl)-ureido]-p-methylcarbonyloxy-benzylpenicillin-Natrium], the MIC in assay [1] was 2 mg/L (≈ 2.8 µM); in assay [2] it was over 64 mg/L; in assay [3], 2 mg/L (≈ 2.8 µM); in [4], 0.5 mg/L (≈ 0.7 µM); in assay [5], 4 mg/L (≈ 5.6 µM); in assay [6], 0.12 mg/L (≈ 0.168 µM). Moreover, the MIC in [7] was 0.25 mg/L (≈ 0.35 µM); in assay [8], 4 mg/L (≈ 5.6 µM); in assay [9] it was 2 mg/L (≈ 2.8 µM); in assay [10] it was 2 mg/L (≈ 2.8 µM); in [11] it was 0.5 mg/L (≈ 0.7 µM). In [12], the ED50 came out at 4.5 mg/kg.

In the case of `CCOC(=O)Oc1ccc([C@@H](NC(=O)Nc2cnc(Nc3ccc(S(N)(=O)=O)cc3)nc2O)C(=O)N[C@@H]2C(=O)N3C(C(=O)O)=C(CSc4nnnn4C)CS[C@H]23)cc1` [C, Natrium-7-{D-α-[3-(2-p-aminosulfonylanilino-4-hydroxy-5-pyrimidinyl)-ureido]-p-äthoxy-carbonyloxy-phenylacetamido}-3-[(1-methyl-tetrazol-5-yl)-thiomethyl]-ceph-3-em-4-carboxylat], the MIC in assay [1] was 0.25 mg/L (≈ 0.292 µM); in assay [2], 4 mg/L (≈ 4.67 µM); in assay [3], 1 mg/L (≈ 1.17 µM); in assay [4], 1 mg/L (≈ 1.17 µM); in [5], 0.5 mg/L (≈ 0.584 µM); in assay [6] it was 0.12 mg/L (≈ 0.14 µM). The MIC in assay [7] turned out to be 0.12 mg/L (≈ 0.14 µM); in assay [8], 8 mg/L (≈ 9.34 µM); in assay [9] it was 0.5 mg/L (≈ 0.584 µM); in [10], 4 mg/L (≈ 4.67 µM); in assay [11] it was 0.25 mg/L (≈ 0.292 µM). In assay [12], this molecule showed an ED50 of 0.6 mg/kg.

`CO/N=C(\C(=O)N[C@@H]1C(=O)N2C(C(=O)O)=C(COC(N)=O)CS[C@H]12)c1ccco1` [Cefuroxim, reference compound]: the MIC in [1] amounted to 4 mg/L (≈ 9.43 µM); in [2], 4 mg/L (≈ 9.43 µM); in assay [3], 2 mg/L (≈ 4.71 µM); in assay [4], 1 mg/L (≈ 2.36 µM); in [5], 2 mg/L (≈ 4.71 µM); in [6], 0.5 mg/L (≈ 1.18 µM). Moreover, the MIC in assay [7] was 8 mg/L (≈ 18.9 µM); in assay [8] it was over 128 mg/L; in [9] it was 32 mg/L (≈ 75.4 µM); in assay [10], over 128 mg/L; in [11], 8 mg/L (≈ 18.9 µM). The molecule also yielded an ED50 in assay [12] of over 100 mg/kg.

Regarding `CC(=O)Oc1ccc([C@@H](NC(=O)Nc2cnc(Nc3ccc(S(N)(=O)=O)cc3)nc2O)C(=O)N[C@@H]2C(=O)N3C(C(=O)O)=C(CSc4nnnn4C)CS[C@H]23)cc1` [D, Natrium-7-{D-α-[3-(2-p-aminosulfonyl-anilino-4-hydroxy-5-pyrimidinyl)-ureido]-p-methylcarbonyloxy-phenylacetamido}-3-[(1-methyl-tetrazol-5-yl)-thiomethyl]-ceph-3-em-4-carboxylat], the MIC in assay [1] amounted to 1 mg/L (≈ 1.21 µM); in assay [2], 16 mg/L (≈ 19.4 µM); in assay [3], 2 mg/L (≈ 2.42 µM); in assay [4], 1 mg/L (≈ 1.21 µM); in assay [5], 2 mg/L (≈ 2.42 µM); in assay [6], 0.25 mg/L (≈ 0.302 µM). The MIC in assay [7] came to 0.5 mg/L (≈ 0.605 µM); in assay [8], 16 mg/L (≈ 19.4 µM); in assay [9], 4 mg/L (≈ 4.84 µM); in [10], 8 mg/L (≈ 9.68 µM); in assay [11], 2 mg/L (≈ 2.42 µM). In addition, it took a dose of 3 mg/kg to reach the 50% effect level in [12] (ED50).
